Laboratory results reported in patent US10588316B2 (priority 2015, dated 2020).
Several values for one entry are separate records, joined by “and”; a condition that tells them apart may be missing. Identical values can stand only once.

Legend:
Set-up in all cases: species or system wheat
Details in all cases: in vivo
DON toxin [1] = tested on: DON toxin
[2] = tested on: toxin synthesis capability of thalli
DON toxin [3] = tested on: DON toxin; remark: listed apart in the source
DON toxin [4] = tested on: DON toxin; remark: listed apart in the source
DON toxin [5] = tested on: DON toxin; remark: listed apart in the source
DON toxin [6] = tested on: DON toxin; remark: listed apart in the source

Compound	Grain Toxin Content (mg of DON/Kg of grain) (DON toxin [1])	Rate of Decrease in Toxin Content in Grains (%) (DON toxin [1])	DON Synthesis Capability [2]	DON Reduction Percentage (DON toxin [3])	Grain Toxin Content mg of DON/kg of grain (DON toxin [4])	Toxin Reduction Percentage % (DON toxin [4])	toxin contamination level of grains (DON toxin [5])	Grain Toxin Content (DON toxin [6])
COC(=O)Nc1nc2ccccc2[nH]1 [Carbendazim, carbendazim]	4.35	32.7%	28.94	55.00%	2.95 mg of DON/kg of grain	34.73%	4.4 mg/kg of grains	–
OCC1=CC(N[C@H]2C[C@H](CO)[C@@H](OC3O[C@H](CO)[C@@H](O)[C@H](O)[C@H]3O)C(O)[C@H]2O)[C@H](O)[C@@H](O)C1O (stereo partly shown) [Jinggangmycin, jinggangmycin A]	–	–	–	–	2.86 mg of DON/kg of grain and 3.82 mg of DON/kg of grain and 4.02 mg of DON/kg of grain and 4.14 mg of DON/kg of grain	–	–	2.89 μg/g of kernels and 3.24 μg/g of kernels and 3.86 μg/g of kernels and 4.2 μg/g of kernels and 4.77 μg/g of kernels
Tebuconazole	–	–	19.88 and 18.35 and 18.95 and 19.02 and 19.41	–	1.89 mg of DON/kg of grain and 2.14 mg of DON/kg of grain and 2.4 mg of DON/kg of grain and 2.8 mg of DON/kg of grain	58.19% and 52.65% and 46.90% and 38.05%	–	4.02 μg/g of kernels and 3.29 μg/g of kernels and 2.14 μg/g of kernels and 2.08 μg/g of kernels
